Results from US7294491B2 (Ajinomoto Co., Inc., priority 2003, dated 2007).

How the values were obtained:
[1] = precipitation concentration (super solubility) of L-glutamic acid in culture medium at pH 4.5 with added L-lysine; type: physicochemical, Pantoea ananatis AJ13601; details: pH 4.5 culture
Experimental: Cells of the Pantoea ananatis AJ13601 strain cultured at 30° C. for 14 hours in the LBG agar medium (10 g/L of trypton, 5 g/L of yeast extract, 10 g/L of NaCl, 15 g/L of agar) containing 25 mg/L of tetracycline hydrochloride and 25 mg/L of chloramphenicol were scraped from one plate and inoculated into 300 ml of seed culture medium having the following composition and contained in a 1 L-volume jar fermenter, and seed culture was performed at 34° C. and pH 6.0.
The pH was adjusted to 6.0 by adding ammonia gas during the culture. The seed culture was finished by observing depletion of the saccharide in the medium as an index, and the seed culture medium of 20% volume of the main culture medium was inoculated into 300 ml of the main culture medium contained in a 1 L-volume jar fermenter to perform the main culture under the conditions of 34° C. and pH 4.5. The composition of the main culture medium is shown below.
The pH was adjusted to 4.5 by adding ammonia gas during the culture. After the saccharide in the medium was consumed and depleted, 700 g/L of glucose aqueous solution was continuously added (6 ml/hr).
The liquid supernatant of the culture medium was obtained by centrifuging the culture medium at 10000×G for 1 minute. The polymorphism of crystals which precipitated in the culture medium was determined by microscopic observation.

[2] = crystal form of L-glutamic acid crystals precipitated in a cooling-crystallization system with added amino acid; type: physicochemical; details: FIG. 7

control of precipitated L-glutamic acid crystal form by added amino acid ([2]; pH 3.2, super saturation 2, 34° C.) | control of precipitated L-glutamic acid crystal form by added amino acid ([2]; pH 4.5 or more, super saturation 2, 34° C.) | Compound | concentration of added L-lysine above which α-form crystals form naturally without seed crystals [1] | control of precipitated L-glutamic acid crystal form by added amino acid ([2]; pH 4.5, super saturation 2, 34° C.)
 |  | NCCCC[C@H](N)C(=O)O [L-lysine] | exceeds 900 mg/L | could be controlled to the α-form
showed the same effect | such an effect could not be observed | N[C@@H](Cc1ccccc1)C(=O)O [L-phenylalanine] |  | 
